Results from US10098897B2, “Methods and materials for reducing development of stenosis of arteriovenous fistulas” (Mayo Foundation for Medical Education and Research, priority 2014, dated 2018).

System: Iex-1
Assay: Iex-1 gene expression by qRT-PCR in hypoxic NIH 3T3 fibroblasts
Type: cell-based, mouse
From the text: To determine the expression of Iex-1 and Vegf-A in vitro, NIH 3T3 cells (ATCC, Manassas, Va.) were used and subjected to hypoxia and normoxia for different lengths of time as described elsewhere (Yang et al., Kidney Int., 85:289-306 (2014) and Janardhanan et al., Kidney Int., 84:338-52 (2013)). Cells were harvested for qRT-PCR analysis.
Cells or tissue were stored in a RNA stabilizing/cell lysis solution (Qiagen, Gaithersburg, Md.) (Yang et al., Kidney Int., 85:289-306 (2014) and Janardhanan et al., Kidney Int., 84:338-52 (2013)). Specimens were homogenized, and total RNA was extracted and isolated via the miRNEasy Mini kit (Qiagen). Culture cells were trypsinized and stored in Qiazol lysis regent and processed using the RNEasy Mini kit.
Gene expression was quantified using qRT-PCR as described elsewhere (Yang et al., Kidney Int., 85:289-306 (2014) and Janardhanan et al., Kidney Int., 84:338-52 (2013)).

## C=C1/C(=C\C=C2/CCC[C@]3(C)[C@@H]([C@H](C)CCCC(C)(C)O)CC[C@@H]23)C[C@@H](O)C[C@@H]1O [calcitriol]
1 μM calcitriol, hypoxic fibroblasts, 24 hours, control PBS alone
  average decrease in Iex-1 expression vs. controls: 56%
1 μM calcitriol, hypoxic fibroblasts, 24 hours, control 8.62+1.52
  average Iex-1 expression (qRT-PCR): 3.84+2.2
Determined using a dose response curve
  optimal dose of calcitriol required to reduce Iex-1 expression: 1 µM
